Values of other authors as cited in patent US20220313611A1, “METHODS TO PREPARE DRY POWDERS USING SUSPENSION BASED THIN FILM FREEZING” (BOARD OF REGENTS, THE UNIVERSITY OF TEXAS SYSTEM, priority 2021, published 2022).

For C=CC[C@@H]1/C=C(\C)C[C@H](C)C[C@H](OC)[C@H]2O[C@@](O)(C(=O)C(=O)N3CCCC[C@H]3C(=O)O[C@H](/C(C)=C/[C@@H]3CC[C@@H](O)[C@H](OC)C3)[C@H](C)[C@@H](O)CC1=O)[C@H](C)C[C@@H]2OC [TAC, Tacrolimus], the solubility in water is given as “practically insoluble in water”.
